Assay results as given in patent US20260013504A1, “HERBICIDAL MIXTURE, HERBICIDAL COMPOSITION, METHOD, USE, AND KITS FOR CONTROLLING UNDESIRABLE VEGETATION” (ADAMA AGAN LTD., priority 2022, published 2026).

How the values were obtained:
Format in all cases: in vivo
Galium aparine = assay: Pot experiment, soil treatment, control of Galium aparine (fresh weight, Colby)
Experimental: (§1) Referring to an article of Colby, S. R. i.e., Calculation of the synergistic and antagonistic response of herbicide combinations.
(§2) E0-E value is calculated to evaluate the combined effect of pyroxasulfone and the second herbicide selected from the group consisting of fluorochloridone, aclonifen, diflufenican and terbutryn on the selected weeds.
(§3) In this Example, the herbicidal activity of treatments by a mixture of pyroxasulfone and the second herbicide selected from the group consisting of fluorochloridone, aclonifen, diflufenican and terbutryn for controlling Aegilops tauschii was investigated by a pot experiment. This Example was carried out in accordance with “NY/T 1155.4-2006 Guidelines for Indoor Bioassay Tests of Pesticides, Herbicides Part 4: Activity Determination Tests, Stem and Leaf Spray Method”. • Source of the agrochemicals tested were: • Pyroxasulfone: pyroxasulfone (850g/Kg, WG) from Adama Agan LTD. • Fluorochloridone: fluorochloridone (250 g/L, EC) from Adama Agan LTD. • Aclonifen: aclonifen (600 g/L, SC) from Adama Agan LTD. • Diflufenican: diflufenican (50g/Kg, WP) from Bayer. • Terbutryn: terbutryn (50g/Kg, SC) from Zhejiang Zhongshan Chemical Industry Group Co., Ltd. • Cultivation of test materials: The test soil was formed by mixing the 20 cm layer loam on the ground surface and the culture medium in a ratio of 3:1 as cultivation soil. Weeds were cultivated in an artificial climate chamber. The daytime and nighttime temperatures were set at 22° C. and 19° C., respectively, and the illumination was set at daytime: dark time 12h: 12h.
(§4) A certain amount of Aegilops tauschii seeds were sown in a plastic pot with a diameter of 9 cm, covering with 1-2 mm soil, and putting them in an enamel dish filled with water. The bottom infiltration method was used to water them, the agrochemicals tested in this Example were applied on the second day after sowing Aegilops tauschii seeds.
(§5) Spraying treatment: ASS-4 automatic control spraying system with a fan-shaped nozzle was used indoors to spray the agrochemicals, the running speed was adjusted based on nozzle pressure, flow rate, etc. to spray 50 mL of liquid of agrochemicals on the actual spray area of 1.1 m2 (equivalent to 30 liters per mu), arranging the plastic pots to be processed on the spraying table evenly, and spraying evenly. The spraying pressure was 0.35 MPa, and the flow rate of the fan-shaped nozzle was 800 mL/min, spraying in order from low dosage to high dosage. Each treatment was repeated 3 times. After spraying, the plastic pots were dried for one day, placed in an artificial climate chamber, and watered regularly to keep moist.
(§6) Weed investigation method and time: after applying the agrochemicals, the symptoms of weed damage (such as growth inhibition, chlorosis, deformity, etc.) were recorded in detail. After 35 days, the fresh weight of aerial part of the weeds in each treatment was weighed, and the measured fresh weight inhibition rate and the measured fresh weight survival rate for each treatment were calculated according to the following equations: […]
Example 4 was conducted substantially the same way as Example 1, except that Galium aparine was used instead of Aegilops tauschii.

Aegilops tauschii = assay: Pot experiment, soil treatment, control of Aegilops tauschii (fresh weight, Colby); details: mixtures: both AIs at these rates, after 35 days
Source text: as §1
E0 is the theoretical fresh weight survival rate for the mixture of pyroxasulfone and the second herbicide selected from the group consisting of fluorochloridone, aclonifen, diflufenican and terbutryn;
X is the measured fresh weight survival rate for pyroxasulfone used alone at the same dosage as that in the mixture;
Y is the measured fresh weight survival rate for the second herbicide selected from the group consisting of fluorochloridone, aclonifen, diflufenican and terbutryn used alone at the same dosage as that in the mixture;
E is the measured fresh weight survival rate for the mixture of pyroxasulfone and the second herbicide selected from the group consisting of fluorochloridone, aclonifen, diflufenican and terbutryn.
as §2, §3, §4, §5, §6

Bromus japonicus = assay: Pot experiment, soil treatment, control of Bromus japonicus (fresh weight, Colby); details: mixtures: both AIs at these rates, after 35 days
Experimental: as §1, §2, §3, §4, §5, §6
Example 3 was conducted in substantially the same way as Example 1, except that Bromus japonicus was used instead of Aegilops tauschii.

Lolium multiflorum Lamk = assay: Pot experiment, soil treatment, control of Lolium multiflorum Lamk (fresh weight, Colby); details: mixtures: both AIs at these rates, after 35 days
Experimental: as §1, §2, §3, §4, §5, §6
Example 2 was conducted in substantially the same way as Example 1, except that Lolium multiflorum Lamk was used instead of Aegilops tauschii.

Solanum nigrum = assay: Pot experiment (glass greenhouse), soil treatment, control of Solanum nigrum (fresh weight, Colby)
Experimental: as §1, §2, §3, §4, §5, §6
Example 6 was substantially conducted in the same as Example 1, except that (1) Solanum nigrum was used instead of Aegilops tauschii, (2) in “Cultivation of test materials” part, Solanum nigrum was cultivated in a glass greenhouse instead of an artificial climate chamber at a temperature of 25 to 33° C. with a natural illumination, and (3) in “Spraying treatment” part, after spraying and drying, the plastic pots were placed in a glass greenhouse instead of an artificial climate chamber.

Lithospermum arvense = assay: Pot experiment, soil treatment, control of Lithospermum arvense (fresh weight, Colby)
Experimental: as §1, §2, §3, §4, §5, §6
Example 5 was conducted substantially the same way as Example 1, except that Lithospermum arvense was used instead of Aegilops tauschii.

[1] = g ai/ha: pyroxasulfone 11.25, fluorochloridone 31.25, aclonifen 150, diflufenican 14.0625, terbutryn 140.625
[2] = g ai/ha: pyroxasulfone 22.5, fluorochloridone 62.5, aclonifen 300, diflufenican 28.125, terbutryn 281.25
[3] = g ai/ha: pyroxasulfone 45, fluorochloridone 125, aclonifen 600, diflufenican 56.25, terbutryn 562.5
[4] = g ai/ha: pyroxasulfone 90, fluorochloridone 250, aclonifen 1200, diflufenican 112.5, terbutryn 1125
[5] = g ai/ha: pyroxasulfone 180, fluorochloridone 500, aclonifen 2400, diflufenican 225, terbutryn 2250
[6] = g ai/ha: pyroxasulfone 360, fluorochloridone 1000, aclonifen 4800, diflufenican 450, terbutryn 4500

O=C(Nc1ccc(F)cc1F)c1cccnc1Oc1cccc(C(F)(F)F)c1 [diflufenican, N-(2,4-difluorophenyl)-2-(3-(trifluoromethyl)phenoxy)-3-pyridinecarboxamide]
Measured fresh weight survival rate (%) - E (Galium aparine; 14.0625 g ai/ha): 38.4% | Measured fresh weight survival rate (%) - E (Galium aparine; 28.125 g ai/ha): 27.4% | Measured fresh weight survival rate (%) - E (Galium aparine; 56.25 g ai/ha): 26.0% | Measured fresh weight survival rate (%) - E (Galium aparine; 112.5 g ai/ha): 15.1% | Measured fresh weight survival rate (%) - E (Galium aparine; 225 g ai/ha): 1.4% | inhibition at 14.0625 g/ha (Galium aparine; Galium aparine, soil, 14.0625 g ai/ha, read-out: Measured fresh weight inhibition rate (%)): 61.6% | inhibition at 28.125 g/ha (Galium aparine; Galium aparine, soil, 28.125 g ai/ha, read-out: Measured fresh weight inhibition rate (%)): 72.6% | inhibition at 56.25 g/ha (Galium aparine; Galium aparine, soil, 56.25 g ai/ha, read-out: Measured fresh weight inhibition rate (%)): 74% | inhibition at 112.5 g/ha (Galium aparine; Galium aparine, soil, 112.5 g ai/ha, read-out: Measured fresh weight inhibition rate (%)): 84.9% | inhibition at 225 g/ha (Galium aparine; Galium aparine, soil, 225 g ai/ha, read-out: Measured fresh weight inhibition rate (%)): 98.6% | Measured fresh weight inhibition rate (%) (Aegilops tauschii; [1]): 3.7% | Measured fresh weight survival rate (%) - E (Aegilops tauschii; [1]): 96.3% | Measured fresh weight inhibition rate (%) (Aegilops tauschii; [2]): 6.7% | Measured fresh weight survival rate (%) - E (Aegilops tauschii; [2]): 93.3% | Measured fresh weight inhibition rate (%) (Aegilops tauschii; [3]): 4.3% | Measured fresh weight survival rate (%) - E (Aegilops tauschii; [3]): 95.7% | Measured fresh weight inhibition rate (%) (Aegilops tauschii; [4]): 6.7% | Measured fresh weight survival rate (%) - E (Aegilops tauschii; [4]): 93.3% | Measured fresh weight inhibition rate (%) (Aegilops tauschii; [5]): 10.4% | Measured fresh weight survival rate (%) - E (Aegilops tauschii; [5]): 89.6% | Measured fresh weight inhibition rate (%) (Aegilops tauschii; [6]): 37.2% | Measured fresh weight survival rate (%) - E (Aegilops tauschii; [6]): 62.8% | Measured fresh weight inhibition rate (%) (Bromus japonicus; [1]): 59.8% | Measured fresh weight survival rate (%) - E (Bromus japonicus; [1]): 40.2% | Measured fresh weight inhibition rate (%) (Bromus japonicus; [2]): 73.2% | Measured fresh weight survival rate (%) - E (Bromus japonicus; [2]): 26.8% | Measured fresh weight inhibition rate (%) (Bromus japonicus; [3]): 80.4% | Measured fresh weight survival rate (%) - E (Bromus japonicus; [3]): 19.6% | Measured fresh weight inhibition rate (%) (Bromus japonicus; [4]): 95.9% | Measured fresh weight survival rate (%) - E (Bromus japonicus; [4]): 4.1% | Measured fresh weight inhibition rate (%) (Bromus japonicus; [5]): 100.0% | Measured fresh weight survival rate (%) - E (Bromus japonicus; [5]): 0.0% | Measured fresh weight inhibition rate (%) (Lolium multiflorum Lamk; [1]): 87.0% | Measured fresh weight survival rate (%) - E (Lolium multiflorum Lamk; [1]): 13.0% | Measured fresh weight inhibition rate (%) (Lolium multiflorum Lamk; [2]): 88.0% | Measured fresh weight survival rate (%) - E (Lolium multiflorum Lamk; [2]): 12.0% | Measured fresh weight inhibition rate (%) (Lolium multiflorum Lamk; [3]): 93.2% | Measured fresh weight survival rate (%) - E (Lolium multiflorum Lamk; [3]): 6.8% | Measured fresh weight inhibition rate (%) (Lolium multiflorum Lamk; [4]): 99.5% | Measured fresh weight survival rate (%) - E (Lolium multiflorum Lamk; [4]): 0.5% | Measured fresh weight inhibition rate (%) (Lolium multiflorum Lamk; [5]): 100.0% | Measured fresh weight survival rate (%) - E (Lolium multiflorum Lamk; [5]): 0.0% | Measured fresh weight inhibition rate (%) (Lolium multiflorum Lamk; [6]): 100.0% | Measured fresh weight survival rate (%) - E (Lolium multiflorum Lamk; [6]): 0.0% | Measured fresh weight survival rate (%) - E (Solanum nigrum; 14.0625 g ai/ha): 94.1% | Measured fresh weight survival rate (%) - E (Solanum nigrum; 28.125 g ai/ha): 90.2% | Measured fresh weight survival rate (%) - E (Solanum nigrum; 56.25 g ai/ha): 79.2% | Measured fresh weight survival rate (%) - E (Solanum nigrum; 112.5 g ai/ha): 71.8% | Measured fresh weight survival rate (%) - E (Solanum nigrum; 225 g ai/ha): 63.5% | inhibition at 14.0625 g/ha (Solanum nigrum; Solanum nigrum, soil, 14.0625 g ai/ha, read-out: Measured fresh weight inhibition rate (%)): 5.9% | inhibition at 28.125 g/ha (Solanum nigrum; Solanum nigrum, soil, 28.125 g ai/ha, read-out: Measured fresh weight inhibition rate (%)): 9.8% | inhibition at 56.25 g/ha (Solanum nigrum; Solanum nigrum, soil, 56.25 g ai/ha, read-out: Measured fresh weight inhibition rate (%)): 20.8% | inhibition at 112.5 g/ha (Solanum nigrum; Solanum nigrum, soil, 112.5 g ai/ha, read-out: Measured fresh weight inhibition rate (%)): 28.2% | inhibition at 225 g/ha (Solanum nigrum; Solanum nigrum, soil, 225 g ai/ha, read-out: Measured fresh weight inhibition rate (%)): 36.5% | Measured fresh weight survival rate (%) - E (Lithospermum arvense; 14.0625 g ai/ha): 33.3% | Measured fresh weight survival rate (%) - E (Lithospermum arvense; 28.125 g ai/ha): 17.4% | Measured fresh weight survival rate (%) - E (Lithospermum arvense; 56.25 g ai/ha): 15.9% | Measured fresh weight survival rate (%) - E (Lithospermum arvense; 112.5 g ai/ha): 1.4% | Measured fresh weight survival rate (%) - E (Lithospermum arvense; 225 g ai/ha): 0.0% | inhibition at 14.0625 g/ha (Lithospermum arvense; Buglossoides arvensis, soil, 14.0625 g ai/ha, read-out: Measured fresh weight inhibition rate (%)): 66.7% | inhibition at 28.125 g/ha (Lithospermum arvense; Buglossoides arvensis, soil, 28.125 g ai/ha, read-out: Measured fresh weight inhibition rate (%)): 82.6% | inhibition at 56.25 g/ha (Lithospermum arvense; Buglossoides arvensis, soil, 56.25 g ai/ha, read-out: Measured fresh weight inhibition rate (%)): 84.1% | inhibition at 112.5 g/ha (Lithospermum arvense; Buglossoides arvensis, soil, 112.5 g ai/ha, read-out: Measured fresh weight inhibition rate (%)): 98.6% | inhibition at 225 g/ha (Lithospermum arvense; Buglossoides arvensis, soil, 225 g ai/ha, read-out: Measured fresh weight inhibition rate (%)): 100%
